Measured values taken from patent US20190274308A1, “METHOD FOR PROTECTING PLANTS FROM PESTS USING A PESTICIDE COMPOSITION WITH ADJUSTABLE PERSISTENCE AND DEGRADABILITY” (Flechsig Patent Company LLC, priority 2016, published 2019).

format: physicochemical
From the text: A further characterizing parameter of the soil is the content of microorganisms, in particular bacteria, fungi and microfauna.
Tables 5 and 6 below indicate the degradation times of exemplary poly(alkyl)guanidines depending on various contents of microorganisms in the soil.
These determinations were obtained basically according to established methods, in particular as described in “Bodenbiologische Arbeitsmethoden”, 2nd revised and expanded edition, F. Schinner, E. Kandeler, R. Öhlinger, R. Margesin (eds.) (1993).
To determine the total bacterial count according to Trolldenier (1972), a soil suspension is applied onto a defined area of a slide and the dried soil film is stained with acridine orange. The bacterial count is determined in a plurality of counting fields under the fluorescence microscope and from this the total bacterial count of the soil sample is calculated.
The ergosterol of the soil fungi is saponified with KOH, extracted with n-hexane in the separating funnel, dried at 40° C. in the rotary evaporator and then dissolved in methanol. Detection is achieved by means of HPLC at 282 nm. The procedure is based on the method of Zelles et al. (1987) and was modified in a few points.
For the sake of simplicity calculation is performed using the dimensions of the dishes. At least 10 individuals per species should be measured. The resulting volume mean value can be equated numerically with the weight, as the specific mass of the microfauna is approximately 1 g cm^−3.

Substance	Difference days min/max degradation time, bact., fungi, microfauna
poly(hexamethylene)guanidine [C6 PHMG]	30 days
poly(octamethylene)guanidine [C8 POMG]	36 days
poly(tetramethylene)guanidine [C4 PTMG]	22 days
